Measurements taken from patent publication US20220281848A1, “PYRAZOLE-SUBSTITUTED PYRROLIDINONES AS HERBICIDES” (FMC Corporation, priority 2019, published 2022).

Test system: plants
Assay: Test D pre-emergence, other plants of Tables D1 and D3
Type: in vivo
Settings: for damage to plant (100=total damage to plant; 0=no damage to plant), SORVU: preemergent, 20 DAA; for damage to plant, ALOMY / damage to plant, AVEFA / damage to plant, BEAVA / damage to plant, BROTE / damage to plant, BRSNN / damage to plant, CHEAL / damage to plant, GALAP / damage to plant, HORVW / damage to plant, KCHSC / damage to plant, LOLPE / damage to plant, POAAN / damage to plant, POLCO / damage to plant, SINAR / damage to plant, STEME / damage to plant, VERPE: pre-emergence, 100=total damage, 0=no damage
Method in brief: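 Seeds treated with herbicide safener; sown in soil; glasshouse, 16 h light, 65% humidity. Sprayed day 1 (pre) or ~day 12 (post). Spray in 0.2% v/v adjuvant. Scored 0–100 damage: 20 DAA pre, 15 d post.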

Structure (SMILES): CCn1nc([C@H]2CN(C)C(=O)[C@@H]2C(=O)Nc2cccc(F)c2F)c2c(F)cccc21 [Compound 7]
- damage to plant (100=total damage to plant; 0=no damage to plant), SORVU (rate 130): 20
- damage to plant (100=total damage to plant; 0=no damage to plant), SORVU (rate 250): 70
- damage to plant (100=total damage to plant; 0=no damage to plant), SORVU (rate 500): 80
- damage to plant, ALOMY (rate 15, 20 DAA): 0
- damage to plant, AVEFA (rate 15, 20 DAA): 0
- damage to plant, BEAVA (rate 15, 20 DAA): 0
- damage to plant, BROTE (rate 15, 20 DAA): 0
- damage to plant, BRSNN (rate 15, 20 DAA): 0
- damage to plant, CHEAL (rate 15, 20 DAA): 0
- damage to plant, GALAP (rate 15, 20 DAA): 0
- damage to plant, HORVW (rate 15, 20 DAA): 0
- damage to plant, KCHSC (rate 15, 20 DAA): 0
- damage to plant, LOLPE (rate 15, 20 DAA): 0
- damage to plant, POAAN (rate 15, 20 DAA): 0
- damage to plant, POLCO (rate 15, 20 DAA): 0
- damage to plant, SINAR (rate 15, 20 DAA): 0
- damage to plant, STEME (rate 15, 20 DAA): 0
- damage to plant, VERPE (rate 15, 20 DAA): 0
- damage to plant, ALOMY (rate 30, 20 DAA): 0
- damage to plant, AVEFA (rate 30, 20 DAA): 0
- damage to plant, BEAVA (rate 30, 20 DAA): 0
- damage to plant, BROTE (rate 30, 20 DAA): 0
- damage to plant, BRSNN (rate 30, 20 DAA): 0
- damage to plant, CHEAL (rate 30, 20 DAA): 0
- damage to plant, GALAP (rate 30, 20 DAA): 0
- damage to plant, HORVW (rate 30, 20 DAA): 0
- damage to plant, KCHSC (rate 30, 20 DAA): 0
- damage to plant, LOLPE (rate 30, 20 DAA): 0
- damage to plant, POAAN (rate 30, 20 DAA): 0
- damage to plant, POLCO (rate 30, 20 DAA): 0
- damage to plant, SINAR (rate 30, 20 DAA): 0
- damage to plant, STEME (rate 30, 20 DAA): 0
- damage to plant, VERPE (rate 30, 20 DAA): 0
- damage to plant, ALOMY (rate 60, 20 DAA): 0
- damage to plant, AVEFA (rate 60, 20 DAA): 0
- damage to plant, BEAVA (rate 60, 20 DAA): 0
- damage to plant, BROTE (rate 60, 20 DAA): 0
- damage to plant, BRSNN (rate 60, 20 DAA): 0
- damage to plant, CHEAL (rate 60, 20 DAA): 0
- damage to plant, GALAP (rate 60, 20 DAA): 0
- damage to plant, HORVW (rate 60, 20 DAA): 0
- damage to plant, KCHSC (rate 60, 20 DAA): 0
- damage to plant, LOLPE (rate 60, 20 DAA): 0
- damage to plant, POAAN (rate 60, 20 DAA): 0
- damage to plant, POLCO (rate 60, 20 DAA): 0
- damage to plant, SINAR (rate 60, 20 DAA): 0
- damage to plant, STEME (rate 60, 20 DAA): 0
- damage to plant, VERPE (rate 60, 20 DAA): 0
- damage to plant, ALOMY (rate 130, 20 DAA): 0
- damage to plant, AVEFA (rate 130, 20 DAA): 10
- damage to plant, BEAVA (rate 130, 20 DAA): 0
- damage to plant, BROTE (rate 130, 20 DAA): 0
- damage to plant, BRSNN (rate 130, 20 DAA): 0
- damage to plant, CHEAL (rate 130, 20 DAA): 0
- damage to plant, GALAP (rate 130, 20 DAA): 0
- damage to plant, HORVW (rate 130, 20 DAA): 0
- damage to plant, KCHSC (rate 130, 20 DAA): 0
- damage to plant, LOLPE (rate 130, 20 DAA): 0
- damage to plant, POAAN (rate 130, 20 DAA): 0
- damage to plant, POLCO (rate 130, 20 DAA): 0
- damage to plant, SINAR (rate 130, 20 DAA): 0
- damage to plant, STEME (rate 130, 20 DAA): 0
- damage to plant, VERPE (rate 130, 20 DAA): 0
- damage to plant, ALOMY (rate 250, 20 DAA): 0
- damage to plant, AVEFA (rate 250, 20 DAA): 20
- damage to plant, BEAVA (rate 250, 20 DAA): 0
- damage to plant, BROTE (rate 250, 20 DAA): 0
- damage to plant, BRSNN (rate 250, 20 DAA): 0
- damage to plant, CHEAL (rate 250, 20 DAA): 0
- damage to plant, GALAP (rate 250, 20 DAA): 0
- damage to plant, HORVW (rate 250, 20 DAA): 0
- damage to plant, KCHSC (rate 250, 20 DAA): 0
- damage to plant, LOLPE (rate 250, 20 DAA): 0
- damage to plant, POAAN (rate 250, 20 DAA): 0
- damage to plant, POLCO (rate 250, 20 DAA): 0
- damage to plant, SINAR (rate 250, 20 DAA): 0
- damage to plant, STEME (rate 250, 20 DAA): 0
- damage to plant, VERPE (rate 250, 20 DAA): 0
- damage to plant, ALOMY (rate 500, 20 DAA): 0
- damage to plant, AVEFA (rate 500, 20 DAA): 50
- damage to plant, BEAVA (rate 500, 20 DAA): 0
- damage to plant, BROTE (rate 500, 20 DAA): 0
- damage to plant, BRSNN (rate 500, 20 DAA): 0
- damage to plant, CHEAL (rate 500, 20 DAA): 0
- damage to plant, GALAP (rate 500, 20 DAA): 0
- damage to plant, HORVW (rate 500, 20 DAA): 0
- damage to plant, KCHSC (rate 500, 20 DAA): 0
- damage to plant, LOLPE (rate 500, 20 DAA): 0
- damage to plant, POAAN (rate 500, 20 DAA): 0
- damage to plant, POLCO (rate 500, 20 DAA): 0
- damage to plant, SINAR (rate 500, 20 DAA): 0
- damage to plant, STEME (rate 500, 20 DAA): 0
- damage to plant, VERPE (rate 500, 20 DAA): 0
